Measured values as given in patent US20150141248A1, “ANTIFUNGAL COMPOSITIONS” (DSM IP ASSETS B.V., priority 2011, published 2015).

Experiments:
[1] = tested on: Fusarium proliferatum; test: Treatment of wounded bananas inoculated with Fusarium proliferatum (mould growth); assay type: in vivo; conditions: for Number of moulded wounds/total number of 12 wounds: bananas 20° C.; for Observed antifungal activity O: bananas
Experimental: Four organic, unripe (green) bananas were used per treatment. The peel of each banana was wounded thrice using a cork borer according to the method described by de Lapeyre de Bellaire and Dubois (1987). Subsequently, each wound was inoculated with 15 μl of a Fusarium proliferatum suspension containing 1×10^5 of spores/ml. […] In addition, the antifungal compositions comprised 1.00% (w/w) methylhydroxyethylcellulose (MHEC), 0.40% (w/w) xanthan gum, 0.20% (w/w) anti-foaming agent, 0.30% (w/w) citric acid, 0.39% (w/w) lactic acid and 0.11% (w/w) potassium sorbate. The pH of the composition was 4.0. […] The treated, unripe bananas were incubated in a closed box in the dark at 20° C. and a relative air humidity of 95%, which was obtained in the presence of a saturated Na2HPO4 aqueous solution. During the first 20 days of incubation, a ripe (yellow) banana was included in the closed box to elevate the ethylene gas level and thus induce ripening of the treated, unripe bananas. […]
The expected antifungal activity (E in %) of the combined antifungal composition comprising both active ingredients was calculated according to the Colby equation (Colby, 1967): […]
wherein X and Y are the observed antifungal activities (in %) of the individual active ingredients X and Y, respectively. If the observed antifungal activity (O in %) of the combination exceeds the expected antifungal activity (E in %) of the combination and the synergy factor O/E is thus >1.0, the combined application of the active ingredients leads to a synergistic antifungal effect.

[2] = tested on: Botrytis cinerea; test: In vitro antifungal activity, 96-well microtiter plates; assay type: cell-based; conditions: in vitro 25° C., 5 days
Experimental: The following compositions were tested: […] Subsequently, 100 μl of a Botrytis cinerea suspension prepared in PCB medium was used to inoculated each well with 2.5×10^3 spores/ml. […] The expected antifungal activity (E in %) of the active ingredient combination was calculated according to the Colby equation (Colby, 1967): […] wherein X and Y are the observed antifungal activities (in %) of the individual active ingredients X and Y, respectively.

[3] = tested on: Fusarium proliferatum; test: as above; assay type: cell-based; conditions: in vitro 25° C., 3 days
Experimental: Subsequently, 100 μl of a Botrytis cinerea suspension prepared in PCB medium was used to inoculated each well with 2.5×10^3 spores/ml.
, the in vitro antifungal activity (%) of the individual active ingredients was assessed by calculating the reduction in mould growth observed in the presence of the active ingredient in comparison to the mould growth observed in the absence of the active ingredient. The expected antifungal activity (E in %) of the active ingredient combination was calculated according to the Colby equation (Colby, 1967): […]
The experiment was conducted as described in Example 13, except for the fact that the following compositions were tested:
Furthermore, Fusarium proliferatum was used for inoculation. The antifungal activity (in %) of the individual and combined active ingredients was determined according to the method described in Example 13.

Compound: CCCC1COC(Cn2cncn2)(c2ccc(Cl)cc2Cl)O1 (stereo not drawn) [Propiconazole, propiconazole]
- Number of moulded wounds/total number of 12 wounds ([1]; 50 ppm natamycin, 250 ppm propiconazole or both, Day 29): 5/12
- Number of moulded wounds/total number of 12 wounds ([1]; 50 ppm natamycin, 250 ppm propiconazole or both, Day 29, listed as propiconazole): 5
- Number of moulded wounds/total number of 12 wounds ([1]; 50 ppm natamycin, 250 ppm propiconazole or both, Day 32): 8/12
- Number of moulded wounds/total number of 12 wounds ([1]; 50 ppm natamycin, 250 ppm propiconazole or both, Day 32, listed as propiconazole): 8
- Number of moulded wounds/total number of 12 wounds ([1]; 50 ppm natamycin, 250 ppm propiconazole or both, Day 34): 10/12
- Number of moulded wounds/total number of 12 wounds ([1]; 50 ppm natamycin, 250 ppm propiconazole or both, Day 34, listed as propiconazole): 10
- Number of moulded wounds/total number of 12 wounds ([1]; 50 ppm natamycin, 250 ppm propiconazole or both, Day 36): 12/12
- Number of moulded wounds/total number of 12 wounds ([1]; 50 ppm natamycin, 250 ppm propiconazole or both, Day 36, listed as propiconazole): 12
- Number of moulded wounds/total number of 12 wounds ([1]; 50 ppm natamycin, 250 ppm propiconazole or both, Day 39): 12/12
- Number of moulded wounds/total number of 12 wounds ([1]; 50 ppm natamycin, 250 ppm propiconazole or both, Day 39, listed as propiconazole): 12
- Number of moulded wounds/total number of 12 wounds ([1]; 50 ppm natamycin, 250 ppm propiconazole or both, Day 42): 12/12
- Number of moulded wounds/total number of 12 wounds ([1]; 50 ppm natamycin, 250 ppm propiconazole or both, Day 42, listed as propiconazole): 12
- Number of moulded wounds/total number of 12 wounds ([1]; 250 ppm natamycin, 500 ppm propiconazole or both, Day 34): 10/12
- Number of moulded wounds/total number of 12 wounds ([1]; 250 ppm natamycin, 500 ppm propiconazole or both, Day 34, listed as propiconazole): 10
- Number of moulded wounds/total number of 12 wounds ([1]; 250 ppm natamycin, 500 ppm propiconazole or both, Day 36): 10/12
- Number of moulded wounds/total number of 12 wounds ([1]; 250 ppm natamycin, 500 ppm propiconazole or both, Day 36, listed as propiconazole): 10
- Number of moulded wounds/total number of 12 wounds ([1]; 500 ppm natamycin, 150 ppm propiconazole or both, Day 26): 9/12
- Number of moulded wounds/total number of 12 wounds ([1]; 500 ppm natamycin, 150 ppm propiconazole or both, Day 26, listed as propiconazole): 9
- Number of moulded wounds/total number of 12 wounds ([1]; 500 ppm natamycin, 150 ppm propiconazole or both, Days 27-29): 12/12
- Number of moulded wounds/total number of 12 wounds ([1]; 500 ppm natamycin, 150 ppm propiconazole or both, Days 27-29, listed as propiconazole): 12
- Number of moulded wounds/total number of 12 wounds ([1]; 500 ppm natamycin, 150 ppm propiconazole or both, Days 31-32): 12/12
- Number of moulded wounds/total number of 12 wounds ([1]; 500 ppm natamycin, 150 ppm propiconazole or both, Days 31-32, listed as propiconazole): 12
- Number of moulded wounds/total number of 12 wounds ([1]; 500 ppm natamycin, 1000 ppm propiconazole or both, Day 39): 4/12
- Number of moulded wounds/total number of 12 wounds ([1]; 500 ppm natamycin, 1000 ppm propiconazole or both, Day 39, listed as propiconazole): 4
- Number of moulded wounds/total number of 12 wounds ([1]; 500 ppm natamycin, 1000 ppm propiconazole or both, Day 42): 4/12
- Number of moulded wounds/total number of 12 wounds ([1]; 500 ppm natamycin, 1000 ppm propiconazole or both, Day 42, listed as propiconazole): 4
- Observed antifungal activity O ([1]; 50 ppm natamycin, 250 ppm propiconazole or both, 29 days): 92%
- Observed antifungal activity O ([1]; 50 ppm natamycin, 250 ppm propiconazole or both, 32 days): 90%
- Observed antifungal activity O ([1]; 50 ppm natamycin, 250 ppm propiconazole or both, 34 days): 85%
- Observed antifungal activity O ([1]; 50 ppm natamycin, 250 ppm propiconazole or both, 36 days): 81%
- Observed antifungal activity O ([1]; 50 ppm natamycin, 250 ppm propiconazole or both, 39 days): 57%
- Observed antifungal activity O ([1]; 50 ppm natamycin, 250 ppm propiconazole or both, 42 days): 47%
- Observed antifungal activity O ([1]; 250 ppm natamycin, 50 ppm propiconazole or both, 23 days): 36%
- Observed antifungal activity O ([1]; 250 ppm natamycin, 50 ppm propiconazole or both, 27 days): 30%
- Observed antifungal activity O ([1]; 250 ppm natamycin, 50 ppm propiconazole or both, 29 days): 35%
- Observed antifungal activity O ([1]; 250 ppm natamycin, 500 ppm propiconazole or both, 34 days): 74%
- Observed antifungal activity O ([1]; 250 ppm natamycin, 500 ppm propiconazole or both, 36 days): 62%
- Observed antifungal activity O ([1]; 250 ppm natamycin, 500 ppm propiconazole or both, 39 days): 43%
- Observed antifungal activity O ([1]; 250 ppm natamycin, 500 ppm propiconazole or both, 42 days): 33%
- Observed antifungal activity O ([1]; 500 ppm natamycin, 150 ppm propiconazole or both, 27 days): 57%
- Observed antifungal activity O ([1]; 500 ppm natamycin, 150 ppm propiconazole or both, 28 days): 56%
- Observed antifungal activity O ([1]; 500 ppm natamycin, 150 ppm propiconazole or both, 29 days): 54%
- Observed antifungal activity O ([1]; 500 ppm natamycin, 150 ppm propiconazole or both, 31 days): 44%
- Observed antifungal activity O ([1]; 500 ppm natamycin, 150 ppm propiconazole or both, 32 days): 33%
- Observed antifungal activity O ([2]; natamycin 0.63 ppm, propiconazole 1.00 ppm or both): 0%
- Observed antifungal activity O ([2]; natamycin 1.25 ppm, propiconazole 0.50 ppm, prothioconazole 0.13 ppm, or natamycin 1.25 ppm with either): 0%
- Observed antifungal activity O ([3]; natamycin 2.5 ppm, propiconazole 7.5 ppm or both): 0%
- Observed antifungal activity O ([3]; propiconazole 10.0 ppm alone or with natamycin 2.5 ppm): 0%
